Read-outs that look alike come from different tables or passages of the source.
Tests used:
[1] = system: Mycobacterium tuberculosis H37Ra ITM-M006710 (ATCC 9431); assay: Microdilution broth, modified Microplate Alamar Blue Assay, whole cell growth inhibition; type: cell-based; settings: Mycobacterium tuberculosis, read-out: MIC Mtb H37Ra
[2] = system: Mycobacterium smegmatis DSM 43465 (ATCC 607); assay: as above; type: cell-based; settings: Mycolicibacterium smegmatis, read-out: MIC Mycobacterium smegmatis
[3] = system: HepG2 cells; assay: HepG2 cytotoxicity, CellTiter 96 (MTS) assay; type: cell-based, human; settings: for IC50: Homo sapiens, read-out: HepG2 IC50
[4] = system: Mycobacterium aurum DSM 43999 (ATCC 23366); assay: Microdilution broth, modified Microplate Alamar Blue Assay, whole cell growth inhibition; type: cell-based; settings: Mycolicibacterium aurum, read-out: MIC Mycobacterium aurum
[5] = type: physicochemical
Procedure: As a complementary test, final compounds were tested for in vitro activity against selected fungal and bacterial pathogens of clinical importance. The microdilution broth method was performed according to The European Committee on Antimicrobial Susceptibility Testing (EUCAST) instructions with slight modifications. The minimum inhibitory concentration was expressed in µM. Not all compounds were evaluated due to the fact of a problem with solubility which occurred for 18 samples. […] See Supplementary Materials for the list of tested strains, methodology, and full results.

[6] = system: M. kansasii CNCTC My 235/80 (ATCC 12478); assay: 96 well plate microdilution broth method with Alamar Blue; type: cell-based; settings: Mycobacterium kansasii
[7] = system: M. avium ssp. avium CNCTC My 80/72 (ATCC 15769); assay: as above; type: cell-based; settings: Mycobacterium avium
[8] = system: Pseudomonas aeruginosa ATCC 27853, CCM 3955; assay: Antibacterial microdilution broth method (EUCAST); type: cell-based; settings: read-out: MIC PA
[9] = system: Candida albicans ATCC 24433, CCM 8320; assay: Antifungal microdilution broth method (EUCAST); type: cell-based
[10] = system: Candida tropicalis ATCC 750, CCM 8264; assay: Antifungal microdilution broth method (EUCAST); type: cell-based; settings: read-out: MIC CT
[11] = system: Staphylococcus aureus spp.aureus ATCC 29213, CCM 4223; assay: Antibacterial microdilution broth method (EUCAST); type: cell-based; settings: read-out: MIC SA
[12] = system: Staphylococcus aureus methicillin resistant ATCC 43300, CCM 4750; assay: microbe, parasite or virus in culture; type: cell-based; settings: ATCC 43300 / CCM 4750 / MRSA, read-out: MIC MRSA
[13] = system: Candida parapsilosis ATCC 22019, CCM 8260; assay: Antifungal microdilution broth method (EUCAST); type: cell-based; settings: Lodderomyces parapsilosis
[14] = system: Staphylococcus epidermidis ATCC 12228, CCM 4418; assay: Antibacterial microdilution broth method (EUCAST); type: cell-based; settings: read-out: MIC SE
[15] = system: Klebsiella pneumoniae ATCC 10031, CCM 4415; assay: Antibacterial microdilution broth method (EUCAST)
[16] = system: Aspergillus flavus CCM 8363; assay: Antifungal microdilution broth method (EUCAST); type: cell-based; settings: read-out: MIC AFla
[17] = system: Aspergillus fumigatus ATCC 204305; assay: Antifungal microdilution broth method (EUCAST); type: cell-based; settings: read-out: MIC AF
[18] = system: Enterococcus faecalis ATCC 29212, CCM 4224; assay: Antibacterial microdilution broth method (EUCAST); type: cell-based; settings: read-out: MIC EF
[19] = system: Trichophyton interdigitale ATCC 9533, CCM 8377; assay: Antifungal microdilution broth method (EUCAST); type: cell-based; settings: read-out: MIC TI
[20] = system: Candida krusei ATCC 6258, CCM 8271; assay: Antifungal microdilution broth method (EUCAST); type: cell-based; settings: Pichia kudriavzevii
[21] = system: Acinetobacter baumanii ATCC 19606, DSM 30007; assay: Antibacterial microdilution broth method (EUCAST); type: cell-based; settings: Acinetobacter baumannii
[22] = system: Absidia corymbifera CCM 8077 (Lichtheimia corymbifera); assay: Antifungal microdilution broth method (EUCAST); type: cell-based; settings: read-out: MIC AC
[23] = system: Escherichia coli ATCC 25922, CCM 3954; assay: Antibacterial microdilution broth method (EUCAST); type: cell-based; settings: read-out: MIC EC
[24] = in vitro, Middlebrook 7H9 broth, resazurin

CCCCCCCNc1cnc(C(=O)Nc2ccc(Cl)cc2O)cn1 [Compound 6e, N-(4-chloro-2-hydroxyphenyl)-5-(heptylamino)pyrazine-2-carboxamide]
did not dissolve in DMSO: Solubility problem in antibacterial/antifungal testing [5]
199.8 to 200.8 °C: melting point
> 100 µg/mL: MIC ([7]; ATCC15769, Middlebrook 7H9 broth pH 6.6, read-out: MIC Mycobacterium avium)
> 25 µM: IC50 ([3]; HepG2, 24 h incubation, > means higher concentration not reproducible due to precipitation)
25 µg/mL: MIC ([6]; ATCC12478, Middlebrook 7H9 broth pH 6.6, read-out: MIC Mycobacterium kansasii)
≥ 500 µg/mL: MIC [1, 24] | MIC [2, 24] | MIC [4, 24]

CCCCCCNc1cnc(C(=O)Nc2ccc(C)cc2)cn1 [Compound 4d, 5-(Hexylamino)-N-(p-tolyl)pyrazine-2-carboxamide]
163 to 164 °C: melting point
125 µM: MIC ([13]; 24 h, read-out: MIC CP) | MIC ([13]; 48 h, read-out: MIC CP) | MIC ([13]; read-out: MIC CP (Candida parapsilosis)) | MIC ([20]; 24 h, read-out: MIC CK) | MIC ([20]; 48 h, read-out: MIC CK) | MIC ([20]; read-out: MIC CK (Candida krusei))
> 125 µM: MIC ([9]; 24 h, read-out: MIC CA) | MIC ([9]; 48 h, read-out: MIC CA) | MIC ([9]; read-out: MIC CA (Candida albicans)) | MIC ([10]; 24 h) | MIC ([10]; 48 h) | MIC ([16]; CCM8363, 24 h) | MIC ([16]; CCM8363, 48 h) | MIC ([17]; ATCC204305, 24 h) | MIC ([17]; ATCC204305, 48 h) | MIC ([19]; 72 h) | MIC ([19]; 120 h) | MIC ([22]; CCM8077, 24 h) | MIC ([22]; CCM8077, 48 h)
4.99 µM: MIC ([1]; MIC converted to µM)
> 500 µM: MIC ([8]; 72 h) | MIC ([8]; 120 h) | MIC ([11]; 24 h) | MIC ([11]; 48 h) | MIC ([12]; 24 h) | MIC ([12]; 48 h) | MIC ([14]; 24 h) | MIC ([14]; 48 h) | MIC KP ([15]; 24h) | MIC KP ([15]; 48h) | MIC ([18]; 24 h) | MIC ([18]; 48 h) | MIC ([21]; 24h) | MIC ([21]; 48h) | MIC ([23]; 24 h) | MIC ([23]; 48 h)
> 100 µg/mL: MIC ([7]; ATCC15769, pH 6.6, read-out: MIC Mycobacterium avium)
12.5 µg/mL: MIC ([6]; ATCC12478, pH 6.6, read-out: MIC Mycobacterium kansasii)
≥ 500 µg/mL: MIC [2] | MIC [4]
> 50 µM: IC50 ([3]; HepG2, 24 h)
1.56 µg/mL: MIC [1, 24]
>10.01: SI, selectivity index ([3]; IC50 (HepG2)/MIC against Mtb H37Ra (in µM))

Reference: paper PMC7180572, “5-Alkylamino-N-phenylpyrazine-2-carboxamides: Design, Preparation, and Antimycobacterial Evaluation” (Molecules, 2020)
